Reference: ChEMBL document CHEMBL1146797, “Design, synthesis, and biological evaluation of novel T-Type calcium channel antagonists” (Bioorg Med Chem Lett, 2004)

Columns and labels:
[1] = system: MDA-MB-361; experiment: Inhibition of cellular proliferation in MDA-361 (breast) tumor cells.; assay type: functional, cell-based; settings: Homo sapiens
[2] = system: Jurkat; experiment: Inhibition of calcium influx in jurkat (T cells).; assay type: functional, cell-based; settings: Homo sapiens
[3] = system: Jurkat; experiment: Inhibition of cellular proliferation in jurkat (T cells).; assay type: functional, cell-based; settings: Homo sapiens
[4] = system: MDA-MB-361; experiment: Inhibition of calcium influx in MDA-361 (breast) tumor cells.; assay type: functional, cell-based; settings: Homo sapiens
[5] = system: LNCaP; experiment: (§1) Inhibition of calcium influx in LNCaP (prostate).; assay type: functional, cell-based; settings: Homo sapiens, Prostate gland
[6] = system: LNCaP; experiment: Inhibition of cellular proliferation in LNCaP (prostate).; assay type: functional, cell-based; settings: Homo sapiens
[7] = system: LNCaP; experiment: as §1; assay type: functional, cell-based, Homo sapiens, Prostate gland

Clc1ccc(C(OC[C@@H]2CCCN2CCc2ccccc2)c2ccccc2)cc1 (some centres undefined)
IC50 [1]: 27 µM | IC50 [2]: < 1 µM | IC50 [3]: 11 µM | IC50 [4]: 3 µM | IC50 [5]: 30 µM | IC50 [6]: 8 µM

Oc1ccc(CCN2CCC[C@H]2COC(c2ccccc2)c2ccc(Cl)cc2)cc1 (some centres undefined)
IC50 [1]: 11 µM | IC50 [2]: 10 µM | IC50 [3]: 6 µM | IC50 [4]: 30 µM | IC50 [5]: 10 µM | IC50 [6]: 3 µM

COc1ccc(CCN2CCC[C@H]2COC(c2ccccc2)c2ccccc2)cc1
IC50 [1]: 29 µM | IC50 [2]: 10 µM | IC50 [3]: 12 µM | IC50 [4]: 30 µM | IC50 [5]: 30 µM | IC50 [6]: 10 µM

COc1ccc(CCN2CCC[C@H]2COC(c2ccc(C)cc2)c2ccc(C)cc2)cc1
IC50 [1]: 40 µM | IC50 [2]: 3 µM | IC50 [3]: 11 µM | IC50 [4]: 20 µM | IC50 [5]: 5 µM | IC50 [6]: 6 µM

COc1ccc(CCN2CCC(COC(c3ccccc3)c3ccc(Cl)cc3)CC2)cc1 (centres undefined)
IC50 [1]: 10.4 µM | IC50 [2]: 7 µM | IC50 [3]: 8.4 µM | IC50 [4]: 25 µM | IC50 [5]: 5 µM | IC50 [6]: 3.3 µM

COc1ccc(CCN2CCCC(COC(c3ccccc3)c3ccccc3)C2)cc1 (centres undefined)
IC50 [1]: 17.7 µM | IC50 [2]: 8 µM | IC50 [3]: 13.8 µM | IC50 [4]: 30 µM | IC50 [5]: 15 µM | IC50 [6]: 9.2 µM

COc1ccc(CCN2CCC[C@H]2COC(c2ccc(Cl)cc2)c2ccc(Cl)cc2)cc1
IC50 [1]: 11 µM | IC50 [2]: 5 µM | IC50 [3]: 3.6 µM | IC50 [4]: 25 µM | IC50 [5]: 4 µM | IC50 [6]: 3 µM

COc1ccc(CCN2CCC[C@H]2COC(c2ccc(OC)cc2)c2ccc(OC)cc2)cc1
IC50 [1]: 15 µM | IC50 [2]: 15 µM | IC50 [3]: 13 µM | IC50 [4]: 20 µM | IC50 [5]: 10 µM | IC50 [6]: 5.1 µM

CN1CCC[C@H]1COC(c1ccccc1)c1ccc(Cl)cc1 (some centres undefined)
IC50 [1]: 47 µM | IC50 [2]: 30 µM | IC50 [3]: 60 µM | IC50 [4]: 100 µM | IC50 [5]: 50 µM | IC50 [6]: 17 µM

COc1ccc(CCN2CCCCC2COC(c2ccc(Cl)cc2)c2ccc(Cl)cc2)cc1 (centres undefined)
IC50 [1]: 22 µM | IC50 [2]: 15 µM | IC50 [3]: 9 µM | IC50 [4]: 30 µM | IC50 [5]: 7 µM | IC50 [6]: 4 µM

COc1cccc(CCN2CCC[C@H]2COC(c2ccccc2)c2ccc(Cl)cc2)c1 (some centres undefined)
IC50 [1]: 29 µM | IC50 [2]: 3 µM | IC50 [3]: 5 µM | IC50 [4]: 30 µM | IC50 [5]: 10 µM | IC50 [6]: 3.2 µM

COc1ccc(CCN2CCC[C@H]2COCc2ccccc2)cc1
IC50 [1]: 83 µM | IC50 [2]: 100 µM | IC50 [3]: 108 µM | IC50 [4]: 20 µM | IC50 [5]: 100 µM | IC50 [6]: 33 µM

COc1ccccc1CCN1CCC[C@H]1COC(c1ccccc1)c1ccc(Cl)cc1 (some centres undefined)
IC50 [1]: 13 µM | IC50 [2]: 1 µM | IC50 [3]: 3.8 µM | IC50 [4]: 10 µM | IC50 [5]: 12 µM | IC50 [6]: 2.4 µM

COc1ccc(CCN2CCC[C@H]2COCc2ccc(Cl)cc2)cc1
IC50 [1]: 15 µM | IC50 [2]: 25 µM | IC50 [3]: 18 µM | IC50 [4]: 100 µM | IC50 [5]: 10 µM | IC50 [6]: 14 µM

COc1ccc(CCN2CCCC(COC(c3ccc(Cl)cc3)c3ccc(Cl)cc3)C2)cc1 (centres undefined)
IC50 [1]: 13 µM | IC50 [2]: 10 µM | IC50 [3]: 9.6 µM | IC50 [4]: 30 µM | IC50 [5]: 5 µM | IC50 [6]: 5 µM

COc1ccc(CCN2CCC[C@H]2COC(c2ccccc2)c2ccc(Cl)cc2)cc1 (some centres undefined)
IC50 [1]: 10 µM | IC50 [3]: 6 µM | IC50 [4]: 10 µM | IC50 [5]: 4 µM | IC50 [6]: 4 µM

COc1ccc(CCN2CCC[C@H]2COC(c2ccccc2)c2ccc(F)cc2)cc1 (some centres undefined)
IC50 [1]: 14 µM | IC50 [2]: 3 µM | IC50 [3]: 13 µM | IC50 [4]: 20 µM | IC50 [5]: 10 µM | IC50 [6]: 2 µM

COc1ccc(CCN2CCC[C@H]2COC(c2ccc(F)cc2)c2ccc(F)cc2)cc1
IC50 [1]: 14 µM | IC50 [2]: 3 µM | IC50 [3]: 5 µM | IC50 [4]: 30 µM | IC50 [5]: 10 µM | IC50 [6]: 4 µM

COc1ccc(CN2CCC[C@H]2COC(c2ccccc2)c2ccc(Cl)cc2)cc1 (some centres undefined)
IC50 [1]: 30 µM | IC50 [2]: 2 µM | IC50 [3]: 10 µM | IC50 [4]: 30 µM | IC50 [7]: No effect | IC50 [6]: 7.7 µM

COc1ccc(CCN2CCC[C@H]2COC(c2ccccc2)c2ccc(Br)cc2)cc1 (some centres undefined)
IC50 [2]: 30 µM | IC50 [3]: 40 µM | IC50 [4]: 100 µM | IC50 [5]: 15 µM | IC50 [6]: 15 µM

COc1ccc(CCN2CCC(COC(c3ccc(Cl)cc3)c3ccc(Cl)cc3)CC2)cc1
IC50 [1]: 7.1 µM | IC50 [2]: 10 µM | IC50 [3]: 11.1 µM | IC50 [4]: 20 µM | IC50 [5]: 10 µM | IC50 [6]: 3.4 µM

COc1ccc(CCCN2CCC[C@H]2COC(c2ccccc2)c2ccc(Cl)cc2)cc1 (some centres undefined)
IC50 [1]: 11 µM | IC50 [2]: 1 µM | IC50 [3]: 4 µM | IC50 [4]: 10 µM | IC50 [5]: 30 µM | IC50 [6]: 3.5 µM

COc1ccc(CCN2CCCCC2COC(c2ccccc2)c2ccc(Cl)cc2)cc1 (centres undefined)
IC50 [1]: 25 µM | IC50 [2]: 3 µM | IC50 [3]: 11 µM | IC50 [4]: 30 µM | IC50 [5]: 10 µM | IC50 [6]: 5 µM

COc1ccc(CCN2CCC(COC(c3ccccc3)c3ccccc3)CC2)cc1
IC50 [1]: 10 µM | IC50 [2]: 20 µM | IC50 [3]: 8.3 µM | IC50 [4]: 30 µM | IC50 [5]: 15 µM | IC50 [6]: 5 µM

COc1ccc(CCN2CCCC(COC(c3ccccc3)c3ccc(Cl)cc3)C2)cc1 (centres undefined)
IC50 [1]: 13 µM | IC50 [2]: 10 µM | IC50 [3]: 8.8 µM | IC50 [4]: 30 µM | IC50 [5]: 12 µM | IC50 [6]: 6.8 µM

COc1ccc(CCN2CCC[C@H]2COC(c2ccccc2)c2ccc(Cl)c(Cl)c2)cc1 (some centres undefined)
IC50 [1]: 11 µM | IC50 [2]: 3 µM | IC50 [3]: 6 µM | IC50 [4]: 10 µM | IC50 [5]: 10 µM | IC50 [6]: 4 µM
